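Five concentrations, 48 hours, 96-well plates. GI50 is the concentration that inhibits growth by half. TGI: concentration producing complete growth inhibition.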
Key:
Test in all cases: growth of human tumour cells (NCI), 48 h
NCI-H23 lung = tested on: NCI-H23 lung
IGROV1 ovarian = tested on: IGROV1 ovarian
MCF7 breast = tested on: MCF7 breast
NCI-H226 lung = tested on: NCI-H226 lung
SNB-19 CNS = tested on: SNB-19 CNS
SR leukemia = tested on: SR leukemia
HOP-92 NSCLC = tested on: HOP-92 NSCLC
OVCAR-4 ovarian = tested on: OVCAR-4 ovarian
NCI-H460 lung = tested on: NCI-H460 lung
CCRF-CEM leukemia = tested on: CCRF-CEM leukemia
SF-539 CNS = tested on: SF-539 CNS
CAKI-1 renal = tested on: CAKI-1 renal
HL-60(TB) leukemia = tested on: HL-60(TB) leukemia
HS 578T breast = tested on: HS 578T breast
T-47D breast = tested on: T-47D breast
DU-145 prostate = tested on: DU-145 prostate
A549 NSCLC = tested on: A549 NSCLC
COLO 205 colon = tested on: COLO 205 colon
HCC-2998 colon = tested on: HCC-2998 colon
HT29 colon = tested on: HT29 colon
HCT-116 colon = tested on: HCT-116 colon
MDA-MB-435 = tested on: MDA-MB-435
TK-10 renal = tested on: TK-10 renal
NCI-H522 lung = tested on: NCI-H522 lung
U251 CNS = tested on: U251 CNS
BT-549 breast = tested on: BT-549 breast
A498 renal = tested on: A498 renal
MALME-3M melanoma = tested on: MALME-3M melanoma
KM12 colon = tested on: KM12 colon
SF-268 CNS = tested on: SF-268 CNS
LOX IMVI melanoma = tested on: LOX IMVI melanoma
HCT-15 colon = tested on: HCT-15 colon
M14 melanoma = tested on: M14 melanoma
UACC-62 melanoma = tested on: UACC-62 melanoma
UO-31 renal = tested on: UO-31 renal
SN12C renal = tested on: SN12C renal
RXF 393 renal = tested on: RXF 393 renal
SK-MEL-28 melanoma = tested on: SK-MEL-28 melanoma
UACC-257 melanoma = tested on: UACC-257 melanoma
PC-3 prostate = tested on: PC-3 prostate
SNB-75 CNS = tested on: SNB-75 CNS
786-0 renal = tested on: 786-0 renal
ACHN renal = tested on: ACHN renal
MOLT-4 leukemia = tested on: MOLT-4 leukemia
SK-OV-3 ovarian = tested on: SK-OV-3 ovarian
SK-MEL-2 melanoma = tested on: SK-MEL-2 melanoma
SK-MEL-5 melanoma = tested on: SK-MEL-5 melanoma
MDA-MB-231 breast = tested on: MDA-MB-231 breast
OVCAR-5 ovarian = tested on: OVCAR-5 ovarian
K-562 leukemia = tested on: K-562 leukemia
SF-295 CNS = tested on: SF-295 CNS
SW-620 colon = tested on: SW-620 colon
NCI/ADR-RES ovarian = tested on: NCI/ADR-RES ovarian
OVCAR-8 ovarian = tested on: OVCAR-8 ovarian
EKVX NSCLC = tested on: EKVX NSCLC
OVCAR-3 ovarian = tested on: OVCAR-3 ovarian
HOP-62 NSCLC = tested on: HOP-62 NSCLC

CC(=O)N1c2ccccc2C23CCN(C)CC4C(C)OCC(C4CC2=O)C13 (centres undefined) was tested, and the TGI (NCI-H23 lung) was > 100 µM, the TGI (IGROV1 ovarian) was > 100 µM and the TGI (MCF7 breast) was > 100 µM. For the same molecule, the TGI (NCI-H226 lung) was > 100 µM, the TGI (SNB-19 CNS) was > 100 µM and the TGI (SR leukemia) was > 100 µM. The TGI (HOP-92 NSCLC) was > 100 µM, the TGI (OVCAR-4 ovarian) was > 100 µM and the TGI (NCI-H460 lung) was > 100 µM. For the same molecule, the TGI (CCRF-CEM leukemia) was > 100 µM, the TGI (SF-539 CNS) was > 100 µM and the TGI (CAKI-1 renal) was > 100 µM. For the same molecule, the TGI (HL-60(TB) leukemia) was > 100 µM, the TGI (HS 578T breast) was > 100 µM and the TGI (T-47D breast) was > 100 µM. For the same molecule, the TGI (DU-145 prostate) was > 100 µM, the TGI (A549 NSCLC) was > 100 µM and the TGI (COLO 205 colon) was > 100 µM. For the same molecule, the TGI (HCC-2998 colon) was > 100 µM, the TGI (HT29 colon) was > 100 µM and the TGI (HCT-116 colon) was > 100 µM. For the same molecule, the TGI (MDA-MB-435) was > 100 µM, the TGI (TK-10 renal) was > 100 µM and the TGI (NCI-H522 lung) was > 100 µM. For the same molecule, the TGI (U251 CNS) was > 100 µM, the TGI (BT-549 breast) was > 100 µM and the TGI (A498 renal) was > 100 µM. For the same molecule, the TGI (MALME-3M melanoma) was > 100 µM, the TGI (KM12 colon) was > 100 µM and the TGI (SF-268 CNS) was > 100 µM. For the same molecule, the TGI (LOX IMVI melanoma) was > 100 µM, the TGI (HCT-15 colon) was > 100 µM and the TGI (M14 melanoma) was > 100 µM. The TGI (UACC-62 melanoma) was > 100 µM, the TGI (UO-31 renal) was > 100 µM and the TGI (SN12C renal) was > 100 µM. The TGI (RXF 393 renal) was > 100 µM, the TGI (SK-MEL-28 melanoma) was > 100 µM and the TGI (UACC-257 melanoma) was > 100 µM. For the same molecule, the TGI (PC-3 prostate) was > 100 µM, the TGI (SNB-75 CNS) was > 100 µM and the TGI (786-0 renal) was > 100 µM. The TGI (ACHN renal) was > 100 µM, the TGI (MOLT-4 leukemia) was > 100 µM and the TGI (SK-OV-3 ovarian) was > 100 µM. The TGI (SK-MEL-2 melanoma) was > 100 µM, the TGI (SK-MEL-5 melanoma) was > 100 µM and the TGI (MDA-MB-231 breast) was > 100 µM. The TGI (OVCAR-5 ovarian) was > 100 µM, the TGI (K-562 leukemia) was > 100 µM and the TGI (SF-295 CNS) was > 100 µM. For the same molecule, the TGI (SW-620 colon) was > 100 µM, the TGI (NCI/ADR-RES ovarian) was > 100 µM and the TGI (OVCAR-8 ovarian) was > 100 µM. For the same molecule, the TGI (EKVX NSCLC) was > 100 µM.
CC1=C[C@H]2c3c(c(O)c(O)c4oc5c(C)cccc5c(=O)c34)[C@H](c3cc(O)c(O)c4oc5c(C)cccc5c(=O)c34)[C@H]2C(C)(C)C1 was tested, and the GI50 (NCI-H23 lung) was 1.24 µM, the TGI (NCI-H23 lung) was 3.42 µM and the GI50 (IGROV1 ovarian) was 1.39 µM. The TGI (IGROV1 ovarian) was 5.69 µM, the GI50 (MCF7 breast) was 2 µM and the TGI (MCF7 breast) was 6.3 µM. The GI50 (NCI-H226 lung) was 2.21 µM, the TGI (NCI-H226 lung) was 5.99 µM and the GI50 (SNB-19 CNS) was 2.27 µM. The TGI (SNB-19 CNS) was 11.2 µM, the GI50 (SR leukemia) was 0.72 µM and the TGI (SR leukemia) was > 100 µM. It also gave a GI50 (HOP-92 NSCLC) of 2.39 µM, a TGI (HOP-92 NSCLC) of 6.69 µM and a GI50 (OVCAR-4 ovarian) of 1.51 µM. The TGI (OVCAR-4 ovarian) was 14.7 µM, the GI50 (NCI-H460 lung) was 0.825 µM and the TGI (NCI-H460 lung) was 3.02 µM. The GI50 (CCRF-CEM leukemia) was 0.65 µM, the TGI (CCRF-CEM leukemia) was 10.4 µM and the GI50 (SF-539 CNS) was 1.67 µM. For the same molecule, the TGI (SF-539 CNS) was 3.65 µM, the GI50 (CAKI-1 renal) was 1.5 µM and the TGI (CAKI-1 renal) was 9.08 µM. The GI50 (OVCAR-3 ovarian) was 1.52 µM, the TGI (OVCAR-3 ovarian) was 9.34 µM and the GI50 (HOP-62 NSCLC) was 1.15 µM. For the same molecule, the TGI (HOP-62 NSCLC) was 3.44 µM, the GI50 (HL-60(TB) leukemia) was 3 µM and the TGI (HL-60(TB) leukemia) was 9.23 µM. The GI50 (HS 578T breast) was 1.93 µM, the TGI (HS 578T breast) was 9.19 µM and the GI50 (T-47D breast) was 2.51 µM. For the same molecule, the TGI (T-47D breast) was 14.1 µM, the GI50 (DU-145 prostate) was 3.13 µM and the TGI (DU-145 prostate) was 14.9 µM. The GI50 (A549 NSCLC) was 1.04 µM, the TGI (A549 NSCLC) was 4.85 µM and the GI50 (COLO 205 colon) was 2.41 µM. For the same molecule, the TGI (COLO 205 colon) was 6.8 µM, the GI50 (HCC-2998 colon) was 1.45 µM and the TGI (HCC-2998 colon) was 3.47 µM. The GI50 (HT29 colon) was 2.12 µM, the TGI (HT29 colon) was 8.92 µM and the GI50 (HCT-116 colon) was 0.899 µM. The TGI (HCT-116 colon) was 2.69 µM, the GI50 (MDA-MB-435) was 1.63 µM and the TGI (MDA-MB-435) was 3.87 µM. It also gave a GI50 (TK-10 renal) of 2.51 µM, a TGI (TK-10 renal) of 11.7 µM and a GI50 (NCI-H522 lung) of 1.97 µM. The TGI (NCI-H522 lung) was 4.29 µM, the GI50 (U251 CNS) was 1.23 µM and the TGI (U251 CNS) was 7.09 µM. It also gave a GI50 (BT-549 breast) of 1.9 µM, a TGI (BT-549 breast) of 5.04 µM and a GI50 (A498 renal) of 1.85 µM. The TGI (A498 renal) was 5.35 µM, the GI50 (MALME-3M melanoma) was 2.43 µM and the TGI (MALME-3M melanoma) was 10.7 µM. The GI50 (KM12 colon) was 2.56 µM, the TGI (KM12 colon) was 8.33 µM and the GI50 (SF-268 CNS) was 1.74 µM. The TGI (SF-268 CNS) was 11.7 µM, the GI50 (LOX IMVI melanoma) was 0.966 µM and the TGI (LOX IMVI melanoma) was 2.22 µM. It also gave a GI50 (HCT-15 colon) of 1.29 µM, a TGI (HCT-15 colon) of 10.9 µM and a GI50 (M14 melanoma) of 1.52 µM. For the same molecule, the TGI (M14 melanoma) was 5.87 µM, the GI50 (UACC-62 melanoma) was 1.6 µM and the TGI (UACC-62 melanoma) was 3.27 µM. It also gave a GI50 (UO-31 renal) of 1.23 µM, a TGI (UO-31 renal) of 2.78 µM and a GI50 (SN12C renal) of 1.69 µM. The TGI (SN12C renal) was 6.7 µM, the GI50 (RXF 393 renal) was 1.22 µM and the TGI (RXF 393 renal) was 3.26 µM. For the same molecule, the GI50 (SK-MEL-28 melanoma) was 1.6 µM, the TGI (SK-MEL-28 melanoma) was 4.18 µM and the GI50 (UACC-257 melanoma) was 2.54 µM. For the same molecule, the TGI (UACC-257 melanoma) was 8.34 µM, the GI50 (PC-3 prostate) was 1.51 µM and the TGI (PC-3 prostate) was 10.2 µM. For the same molecule, the GI50 (SNB-75 CNS) was 1.4 µM, the TGI (SNB-75 CNS) was 6.77 µM and the GI50 (786-0 renal) was 2.85 µM. For the same molecule, the TGI (786-0 renal) was 9.29 µM, the GI50 (ACHN renal) was 2.31 µM and the TGI (ACHN renal) was 10.7 µM. For the same molecule, the GI50 (MOLT-4 leukemia) was 1.06 µM, the TGI (MOLT-4 leukemia) was 31 µM and the GI50 (SK-OV-3 ovarian) was 2.46 µM. It also gave a TGI (SK-OV-3 ovarian) of 9.96 µM, a GI50 (SK-MEL-2 melanoma) of 2.05 µM and a TGI (SK-MEL-2 melanoma) of 5.1 µM. For the same molecule, the GI50 (SK-MEL-5 melanoma) was 1.43 µM, the TGI (SK-MEL-5 melanoma) was 2.78 µM and the GI50 (MDA-MB-231 breast) was 2.88 µM. It also gave a TGI (MDA-MB-231 breast) of 14.6 µM, a GI50 (OVCAR-5 ovarian) of 2.65 µM and a TGI (OVCAR-5 ovarian) of 10.6 µM. For the same molecule, the GI50 (K-562 leukemia) was 1.67 µM, the TGI (K-562 leukemia) was > 100 µM and the GI50 (SF-295 CNS) was 1 µM. It also gave a TGI (SF-295 CNS) of 2.84 µM, a GI50 (SW-620 colon) of 1.93 µM and a TGI (SW-620 colon) of 10 µM. For the same molecule, the GI50 (NCI/ADR-RES ovarian) was 2.44 µM, the TGI (NCI/ADR-RES ovarian) was 7.15 µM and the GI50 (OVCAR-8 ovarian) was 1.7 µM. It also gave a TGI (OVCAR-8 ovarian) of 17.4 µM, a GI50 (EKVX NSCLC) of 2.34 µM and a TGI (EKVX NSCLC) of 11 µM.

Source: PubChem BioAssay (NCI)
